Test results from US8741944B2, “Anti-infective agents against intracellular pathogens” (priority 2007, dated 2014).
“And” between values parts separate entries of the source, which are not always exact repeats. Equal entries are not always repeated. Where two headings read alike, the source gives them in different places.

How the values were obtained:
[1] = test system: A549/ATCC (Non-Small Cell Lung Cancer); experiment: NCI DTP tumor cell line screen (SRB), A549/ATCC
Experimental: (§1) For a typical screening experiment, cells are inoculated into 96 well microtiter plates in 100 μL at plating densities ranging from 5,000 to 40,000 cells/well depending on the doubling time of individual cell lines. After cell inoculation, the microtiter plates are incubated at 37° C., 5% CO2, 95% air and 100% relative humidity for 24 h prior to addition of experimental drugs.
(§2) After 24 h, two plates of each cell line are fixed in situ with TCA, to represent a measurement of the cell population for each cell line at the time of drug addition (Tz). Experimental drugs are solubilized in dimethyl sulfoxide at 400-fold the desired final maximum test concentration and stored frozen prior to use. At the time of drug addition, an aliquot of frozen concentrate is thawed and diluted to twice the desired final maximum test concentration with complete medium containing 50 μg/ml gentamicin. Additional four, 10-fold or ½ log serial dilutions are made to provide a total of five drug concentrations plus control. Aliquots of 100 μl of these different drug dilutions are added to the appropriate microtiter wells already containing 100 μl of medium, resulting in the required final drug concentrations.
(§3) Following drug addition, the plates are incubated for an additional 48 h at 37° C., 5% CO2, 95% air, and 100% relative humidity. For adherent cells, the assay is terminated by the addition of cold TCA. Cells are fixed in situ by the gentle addition of 50 μl of cold 50% (w/v) TCA (final concentration, 10% TCA) and incubated for 60 minutes at 4° C. The supernatant is discarded, and the plates are washed five times with tap water and air dried. Sulforhodamine B (SRB) solution (1001) at 0.4% (w/v) in 1% acetic acid is added to each well, and plates are incubated for 10 minutes at room temperature. After staining, unbound dye is removed by washing five times with 1% acetic acid and the plates are air dried. Bound stain is subsequently solubilized with 10 mM trizma base, and the absorbance is read on an automated plate reader at a wavelength of 515 nm. For suspension cells, the methodology is the same except that the assay is terminated by fixing settled cells at the bottom of the wells by gently adding 50 μl of 80% TCA (final concentration, 16% TCA). Using the seven absorbance measurements [time zero, (Tz), control growth, (C), and test growth in the presence of drug at the five concentration levels (Ti)], the percentage growth is calculated at each of the drug concentrations levels. Percentage growth inhibition is calculated as: [(Ti−Tz)/(C−Tz)]×100 for concentrations for which Ti>/=Tz [(Ti−Tz)/Tz]×100 for concentrations for which Ti<Tz
(§4) Three dose response parameters are calculated for each experimental agent. […] The drug concentration resulting in total growth inhibition (TGI) is calculated from Ti=Tz. […] Values are calculated for each of these three parameters if the level of activity is reached; however, if the effect is not reached or is exceeded, the value for that parameter is expressed as greater or less than the maximum or minimum concentration tested.

OVCAR-3 (Ovarian Cancer) = experiment: NCI DTP tumor cell line screen (SRB), OVCAR-3
Experimental: as §1, §2, §3, §4

HS 578T (Breast Cancer) = experiment: NCI DTP tumor cell line screen (SRB), HS 578T
Experimental: as §1, §2, §3, §4

HT29 (Colon Cancer) = experiment: NCI DTP tumor cell line screen (SRB), HT29
Experimental: as §1, §2, §3, §4

[2] = test system: NCI/ADR-RES (Breast Cancer)
Experimental: as §1, §2, §3, §4

SN12C (Renal Cancer) = experiment: NCI DTP tumor cell line screen (SRB), SN12C
Experimental: as §1, §2, §3, §4

A498 (Renal Cancer) = experiment: NCI DTP tumor cell line screen (SRB), A498
Experimental: as §1, §2, §3, §4

MALME-3M (Melanoma) = experiment: NCI DTP tumor cell line screen (SRB), MALME-3M
Experimental: as §1, §2, §3, §4

SK-MEL-2 (Melanoma) = experiment: NCI DTP tumor cell line screen (SRB), SK-MEL-2
Experimental: as §1, §2, §3, §4

MOLT-4 (Leukemia) = experiment: NCI DTP tumor cell line screen (SRB), MOLT-4
Experimental: as §1, §2, §3, §4

[3] = test system: EKVX (Non-Small Cell Lung Cancer); experiment: NCI DTP tumor cell line screen (SRB), EKVX
Experimental: as §1, §2, §3, §4

[4] = test system: NCI-H23 (Non-Small Cell Lung Cancer)
Experimental: as §1, §2, §3, §4

OVCAR-8 (Ovarian Cancer) = experiment: NCI DTP tumor cell line screen (SRB), OVCAR-8
Experimental: as §1, §2, §3, §4

HCT-116 (Colon Cancer) = experiment: NCI DTP tumor cell line screen (SRB), HCT-116
Experimental: as §1, §2, §3, §4

SR (Leukemia) = experiment: NCI DTP tumor cell line screen (SRB), SR
Experimental: as §1, §2, §3, §4

[5] = test system: sixty human tumor cell lines; experiment: NCI DTP sixty human tumor cell line screen (SRB), means over the panel

4-[5-(2-Phenanthrenyl)-3-(trifluoromethyl)-1H-pyrazol-1-yl]-phenyl -guanidine [Compound 71]
GI50 [1]: 1680 nM
TGI [1]: 3.04E−06
Percent Growth ([1]; Log10 Concentration −4.0): −63%
Percent Growth ([1]; Log10 Concentration −5.0): −100%
GI50 (OVCAR-3 (Ovarian Cancer)): 1400 nM
TGI (OVCAR-3 (Ovarian Cancer)): 2.70E−06
Percent Growth (OVCAR-3 (Ovarian Cancer); Log10 Concentration −4.0): −72%
Percent Growth (OVCAR-3 (Ovarian Cancer); Log10 Concentration −5.0): −100%
Percent Growth (OVCAR-3 (Ovarian Cancer); Log10 Concentration −6.0): 76%
Percent Growth (OVCAR-3 (Ovarian Cancer); Log10 Concentration −8.0): 91%
GI50 (HS 578T (Breast Cancer)): 1860 nM
TGI (HS 578T (Breast Cancer)): 3.78E−06
Percent Growth (HS 578T (Breast Cancer); Log10 Concentration −4.0): −38%
Percent Growth (HS 578T (Breast Cancer); Log10 Concentration −5.0): −69%
Percent Growth (HS 578T (Breast Cancer); Log10 Concentration −6.0): 94%
Percent Growth (HS 578T (Breast Cancer); Log10 Concentration −7.0): 100%
GI50 (HT29 (Colon Cancer)): 1500 nM
TGI (HT29 (Colon Cancer)): 2.83E−06
Percent Growth (HT29 (Colon Cancer); Log10 Concentration −4.0): −99%
Percent Growth (HT29 (Colon Cancer); Log10 Concentration −5.0): −100%
Percent Growth (HT29 (Colon Cancer); Log10 Concentration −6.0): 82%
Percent Growth (HT29 (Colon Cancer); Log10 Concentration −7.0): 91%
Percent Growth (HT29 (Colon Cancer); Log10 Concentration −8.0): 95%
GI50 [2]: 2640 nM
TGI [2]: 7.73E−06
Percent Growth ([2]; Log10 Concentration −4.0): −47%
Percent Growth ([2]; Log10 Concentration −6.0): 95%
Percent Growth ([2]; Log10 Concentration −8.0): 98%
GI50 (SN12C (Renal Cancer)): 1570 nM
TGI (SN12C (Renal Cancer)): 2.91E−06
Percent Growth (SN12C (Renal Cancer); Log10 Concentration −4.0): −62%
Percent Growth (SN12C (Renal Cancer); Log10 Concentration −5.0): −100%
Percent Growth (SN12C (Renal Cancer); Log10 Concentration −7.0): 78%
GI50 (A498 (Renal Cancer)): 16500 nM
TGI (A498 (Renal Cancer)): 4.35E−05
Percent Growth (A498 (Renal Cancer); Log10 Concentration −4.0): −43%
Percent Growth (A498 (Renal Cancer); Log10 Concentration −5.0): 76%
Percent Growth (A498 (Renal Cancer); Log10 Concentration −6.0): 73%
Percent Growth (A498 (Renal Cancer); Log10 Concentration −7.0): 91%
Percent Growth (A498 (Renal Cancer); Log10 Concentration −8.0): 116%
GI50 (MALME-3M (Melanoma)): 1010 nM
TGI (MALME-3M (Melanoma)): 2.33E−06
Percent Growth (MALME-3M (Melanoma); Log10 Concentration −4.0): −50%
Percent Growth (MALME-3M (Melanoma); Log10 Concentration −6.0): 50%
Percent Growth (MALME-3M (Melanoma); Log10 Concentration −8.0): 52%
GI50 (SK-MEL-2 (Melanoma)): 1570 nM
TGI (SK-MEL-2 (Melanoma)): 2.91E−06
Percent Growth (SK-MEL-2 (Melanoma); Log10 Concentration −4.0): −29%
Percent Growth (SK-MEL-2 (Melanoma); Log10 Concentration −5.0): −100%
Percent Growth (SK-MEL-2 (Melanoma); Log10 Concentration −7.0): 97%
Percent Growth (SK-MEL-2 (Melanoma); Log10 Concentration −8.0): 85%
GI50 (MOLT-4 (Leukemia)): 233 nM
TGI (MOLT-4 (Leukemia)): 1.98E−06
Percent Growth (MOLT-4 (Leukemia); Log10 Concentration −6.0): 23%
Percent Growth (MOLT-4 (Leukemia); Log10 Concentration −7.0): 66%
GI50 [3]: 1060 nM
TGI [3]: 2.24E−06
Percent Growth ([3]; Log10 Concentration −5.0): −100%
Percent Growth ([3]; Log10 Concentration −7.0): 63%
Percent Growth ([3]; Log10 Concentration −8.0): 55%
GI50 [4]: 1790 nM
TGI [4]: 3.18E−06
Percent Growth ([4]; Log10 Concentration −4.0): −67%
Percent Growth ([4]; Log10 Concentration −5.0): −100%
Percent Growth ([4]; Log10 Concentration −6.0): 101%
GI50 (OVCAR-8 (Ovarian Cancer); OVCAR 8): 1690 nM
TGI (OVCAR-8 (Ovarian Cancer); OVCAR 8): 3.05E−06
Percent Growth (OVCAR-8 (Ovarian Cancer); OVCAR 8, Log10 Concentration −4.0): −69%
Percent Growth (OVCAR-8 (Ovarian Cancer); OVCAR 8, Log10 Concentration −5.0): −100%
Percent Growth (OVCAR-8 (Ovarian Cancer); OVCAR 8, Log10 Concentration −6.0): 94%
Percent Growth (OVCAR-8 (Ovarian Cancer); OVCAR 8, Log10 Concentration −8.0): 92%
GI50 (HCT-116 (Colon Cancer)): 1290 nM
TGI (HCT-116 (Colon Cancer)): 2.55E−06
Percent Growth (HCT-116 (Colon Cancer); Log10 Concentration −4.0): −49%
Percent Growth (HCT-116 (Colon Cancer); Log10 Concentration −5.0): −100%
Percent Growth (HCT-116 (Colon Cancer); Log10 Concentration −6.0): 68%
Percent Growth (HCT-116 (Colon Cancer); Log10 Concentration −8.0): 82%
GI50 (SR (Leukemia)): 38.6 nM
TGI (SR (Leukemia)): 3.79E−07
Percent Growth (SR (Leukemia); Log10 Concentration −4.0): −21%
Percent Growth (SR (Leukemia); Log10 Concentration −5.0): −36%
Percent Growth (SR (Leukemia); Log10 Concentration −6.0): −30%
Percent Growth (SR (Leukemia); Log10 Concentration −7.0): 42%
Percent Growth (SR (Leukemia); Log10 Concentration −8.0): 62%
concentration range completely suppressing cell growth in a diverse range of tumor cell lines [5]: 3 to 5 µM
GI50 ([5]; read-out: mean GI50 among the sixty cell lines, two-day treatment): 1200 nM and 1300 nM
CC50 ([5]; read-out: mean LC50 among the sixty cell lines, two-day treatment): 8500 nM
mean TGI among the sixty cell lines ([5]; two-day treatment): 2900 nM
